Consider two compounds from US20040265288A1, “New applications of gene therapy technology” (priority 1995, published 2004).

Series [1] concerns FKBP12-containing fusion proteins (3xFKBP-p65 / ZFHD1-3xFKBP transcription factors). Description: Dimerizer-regulated gene expression (SEAP or hGH reporter) in transfected cells. In kind it is cell-based, human. The conditions noted are these: for activation of transcription with stably integrated constructs: cells in which transcription factor and reporter gene constructs are all stably integrated. As for the experimental part:
To screen clones it is convenient to transiently transfect cells in a 96-well format. Lipofectamine is used to introduce 50 ng total DNA/96-well under conditions recommended by the manufacturer (Gibco/BRL). If introducing both the transcription factor and target gene plasmids transiently, use 20 ng of each plasmid and 10 ng of carrier DNA (it may be necessary to optimize plasmid ratios and transfection conditions for each cell type). If only introducing one plasmid, bring to 50 ng with carrier DNA.
Following transfection, add medium +/−100 nM AP1510 dimerizer (or try a range of concentrations).
After overnight incubation (or longer), assay for target gene expression.
Secreted alkaline phosphatase activity can be easily measured from the supernatant of appropriately transfected cells using fluorescence-(see (10)), or chemiluminescence-(Tropix, Bedford, Mass.) based assays. Samples to be tested should first be incubated at 65° C. for 1 hour to inactivate endogenous alkaline phosphatase activity.
In gene regulation applications, expression becomes detectable at an AP1510 concentration of approximately 10 nM, and peaks at approximately 100 nM. When SEAP or hGH reporter systems are used, expression can be easily detected after an overnight incubation with dimerizer. In our experience, the efficacy is generally similar for other dimerization applications. A range of concentrations from 1 nM to 1 uM will typically provide a good dose-response profile in both cases.

In series [2] the test system is transmembrane receptors that are activated by oligomerization. Description: Dimerization of transmembrane receptors. In kind it is cell-based.
Series [3] relates to cells. Description: Toxicity to cells. In kind it is cell-based.
Series [4] is described as follows: Immunosuppressive activity of dimerizer.
A short description of series [5]: Solubility in aqueous culture medium. Type of series: physicochemical. The conditions noted are these: serial dilution in (aqueous) culture medium. As for the experimental part:
Working concentrations of AP1510 can be obtained by adding compound directly from ethanol stocks, or by diluting serially in culture medium just before use. In the latter case it is recommended that the highest concentration not exceed 5 uM, to ensure complete solubility in the (aqueous) medium. In either case, the final concentration of ethanol in the medium added to mammalian cells should be kept below 0.5% (a 200-fold dilution of a 100% ethanol solution) to prevent detrimental effects of the solvent on the cells.

The conditions of series [6]: linker positioned in the calcineurin binding domain of FK506; cited from earlier work.
The target of series [7] is FKBP12 (Homo sapiens, UniProt P62942). The conditions noted are these: linker positioned in the calcineurin binding domain of FK506; cited from earlier work.
The mark [8] stands for this setting: gene regulation applications, SEAP or hGH reporter, overnight incubation with dimerizer.

Read-outs that look alike come from different tables or passages of the source.

FKBP12, sequence (P62942 whole entry, the tested form may be a part): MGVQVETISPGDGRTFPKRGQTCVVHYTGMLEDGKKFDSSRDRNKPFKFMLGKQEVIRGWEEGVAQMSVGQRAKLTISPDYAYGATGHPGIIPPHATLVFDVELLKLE

For the compound `CCC(C)(C)C(=O)C(=O)N1CCCC[C@H]1C(=O)O[C@H](CCc1ccc(OC)c(OC)c1)c1cccc(OCC(=O)NCCNC(=O)COc2cccc([C@@H](CCc3ccc(OC)c(OC)c3)OC(=O)[C@@H]3CCCCN3C(=O)C(=O)C(C)(C)CC)c2)c1` [AP1510], in series [1], the “activation of transcription with stably integrated constructs” value was “activates transcription efficiently”. Further, the “activation of transcription compared with FK1012” value in series [1] (gene regulation applications) was “at lower concentrations and to a higher level than FK1012”. Moreover, in series [1] (setting [8]), the “AP1510 concentration at which expression becomes detectable” value is “approximately 10 nM” and the “AP1510 concentration at which expression peaks” value was “approximately 100 nM”. Also, the “dimerization of transmembrane receptors” value in series [2] is “successfully used to dimerize”. Also, in series [3], the toxicity to cells result is on record as “non-toxic to cells”. Moreover, the immunosuppressive activity entry in series [4] is “no immunosuppressive activity”. Moreover, the “highest concentration ensuring complete solubility in medium” value in series [5] was not above 5 µM.

As for FK1012, in series [6], the immunosuppressive activity entry was “abolishes immunosuppressive activity”. Besides, in series [1], the “activation of transcription with stably integrated constructs” value was “poor”. For the same compound, the FKBP12 binding entry in series [7] is “unaffected”.
